# Entries after “also recorded” stand apart in the source; their conditions may differ.
# Tests used:
# [1] = tested on: DNA fragment (SEQ ID NO:11) derived from pQBI63; assay: DNA alkylation of 5′-Texas Red-labeled DNA fragment (994 bp); assay type: biochemical; conditions: FIG. 5
# Description: A 5′-Texas Red-labeled DNA fragment (994 bp) (pQBI63; SEQ ID NO:11) was prepared by a PCR method using a 20-base-pair primer, i.e., 5′-[…]-3′ (SEQ ID NO:12), and a 5′-Texas Red-labeled 20-base-pair primer, i.e., 5′-TexRed-[…]-3′ (SEQ ID NO:13), pQBI63 plasmid being used as a template.
# (§1) Analysis by polyacrylamide gel electrophoresis was performed by the following process: A standard reaction solution containing the 5′-Texas Red-end-labeled DNA fragment (10 nM), DMF (10% (v/v)), and an agent having a concentration described above in a sodium phosphate buffer (5 mM, total volume: 10 μL, pH=7.0) was charged into a microfuge tube (Eppendorf) and left standing at 23° C. for 8 hours. After completion of the reaction, the reaction was quenched by the addition of calf thymus DNA (1 mM, 1 μL). The resulting mixture was shaken at 90° C. for 5 minutes. The DNA obtained by centrifugation under reduced pressure was dissolved by the addition of 8 μl, of loading dye (fushin red solution in DMF), shaken at 94° C. for 20 minutes, and then immediately cooled to 0° C. A 2-μL aliquot was separated electrophoretically on a 6% denaturing polyacrylamide gel using a Hitachi 5500-S DNA sequencer. The following tests were conducted in a similar way. […]
# [2] = tested on: 727-bp DNA fragment (SEQ ID NO:14); assay: Sequence-specific alkylation of DNA by polyamide heterodimer; assay type: biochemical; conditions: 727-bp fragment, FIG. 7
# Description: A 5′-Texas Red-labeled 727-bp DNA fragment (SEQ ID NO:14) was prepared by a PCR method using a 5′-Texas Red-labeled 20-base-pair primer, i.e., 5′-TexRed-[…]-3′ (SEQ ID NO:15), and a 21-base-pair primer, i.e., 5′-[…]-3′ (SEQ ID NO:16), a plasmid containing MLP into which the code base sequence of human β-globin was integrated being used as a template.
# as §1
# [3] = tested on: DNA fragment (446 bp; SEQ ID NO:17) containing 24 repeats of a telomeric sequence; assay: DNA alkylation targeting telomeric sequence; assay type: biochemical; conditions: 446 bp fragment, nanomolar concentrations, FIG. 8
# Description: A 5′-Texas Red-labeled 446-bp DNA fragment (SEQ ID NO:17 with a 24-times-repeated telomere sequence was prepared by a PCR method using a 5′-Texas Red-labeled 20-base pair primer, i.e., 5′-TexRed-[…]-3′ (SEQ ID NO:18), and a 20-base-pair primer, i.e., 5′-[…]-3′ (SEQ ID NO:19), pCR2.1 plasmid into which an oligomer having a repetitive telomere sequence was integrated from the cleavage site by EcoRI being used as a template. The resulting each DNA fragment was purified by filtration using Suprec-02. The concentration of each resulting product was determined by measuring UV absorption.
# as §1, with “C.” for “C. A 2-μL aliquot was separated electrophoretically on a 6% denaturing polyacrylamide gel using a Hitachi 5500-S DNA sequencer. The following tests were conducted in a similar way.”
# [4] = tested on: 39 cultured human cancer cell lines; assay: Anticancer activity screening on 39 cultured human cancer cell lines (Japanese Foundation for Cancer Research); conditions: mean of 39 cultured human cancer cell lines
# Description: Evaluation of the anticancer activity on the 39 cultured human cancer cell lines from breast cancer cell line to prostate cancer cell line was made by screening test performed in The Japanese Foundation for Cancer Research.
# [5] = tested on: long-chain DNA (λ-F10906; SEQ ID NO:8); assay: DNA alkylation of 5′-Texas Red-labeled long-chain DNA, analysed by polyacrylamide gel electrophoresis; assay type: biochemical; conditions: λ-F10906, nanomolar concentrations, FIG. 4
# Description: A 5′-Texas Red-labeled DNA fragment (537 bp) (λ-F10906; SEQ ID NO:8) was prepared by a PCR method using a 5′-Texas Red-labeled 23-base-pair primer, i.e., 5′-TexRed-[…]-3′ (λ-DNA forward, 10960-10982; SEQ ID NO:9), and a 20-base-pair primer, i.e., 5′-[…]-3′ (λ-DNA reverse, 37007-37026; SEQ ID NO:10), λ-DNA being used as a template.
# (§2) Analysis by polyacrylamide gel electrophoresis was performed by the following process: A standard reaction solution containing the 5′-Texas Red-end-labeled DNA fragment (10 nM), DMF (10% (v/v)), and an agent having a concentration described above in a sodium phosphate buffer (5 mM, total volume: 10 μL, pH=7.0) was charged into a microfuge tube (Eppendorf) and left standing at 23° C. for 8 hours. After completion of the reaction, the reaction was quenched by the addition of calf thymus DNA (1 mM, 1 μL). The resulting mixture was shaken at 90° C. for 5 minutes. The DNA obtained by centrifugation under reduced pressure was dissolved by the addition of 8 μl, of loading dye (fushin red solution in DMF), shaken at 94° C. for 20 minutes, and then immediately cooled to 0° C. A 2-μL aliquot was separated electrophoretically on a 6% denaturing polyacrylamide gel using a Hitachi 5500-S DNA sequencer. The following tests were conducted in a similar way.
# The reaction of compounds (3-2), (3-4), and (3-5) with DNA was studied using the long-chain DNA (λ-F10906; SEQ ID NO:8). The DNA-alkylating ability of each compound was evaluated.
# [6] = tested on: long-chain DNA (pUC-II; SEQ ID NO:4, pUC-I′; SEQ ID NO:1); assay: as above; assay type: biochemical; conditions: 8 hours, pUC-II and pUC-I′, FIG. 2
# Description: A 5′-Texas Red-labeled DNA fragment (450 bp) (pUC-I′, SEQ ID NO:1) was prepared by a PCR method using a 5′-Texas Red-labeled 20-base-pair primer, i.e., 5′-TexRed-[…]-3′ (pUC18 forward, 780-799; SEQ ID NO:2), and a 20-base-pair primer, i.e., 5′-[…]-3′ (pUC18 reverse, 1459-1478; SEQ ID NO:3), puc18 being used as a template. The DNA fragment was in a double-stranded state including a complementary strand (the following fragments were in the same state).
# A 5′-Texas Red-labeled DNA fragment (450 bp) (pUC-II, SEQ ID NO:4) was prepared by a PCR method using a 5′-Texas Red-labeled 21-base-pair primer, i.e., 5′-TexRed-[…]-3′ (pUC18 reverse, 1861-1881; SEQ ID NO:5), and a 19-base-pair primer, i.e., 5-TGTAAAACGACGGCCAGTG-3′ (pUC18 forward, 328-345; SEQ ID NO:6), puc18 being used as a template.
# as §2
# The reaction of compounds (3-2) and (3-3) prepared in the above-described Synthesis Examples with DNA was studied using the long-chain DNA (pUC-II; SEQ ID NO:4, pUC-I′; SEQ ID NO:1). An alkylation reaction was performed for 8 hours. The sequence alkylated was analyzed by polyacrylic gel electrophoresis for sequence determination. […] However, the difference in sequence recognition ability was observed. […] From the stand point of the sequence recognition ability, the molecular design of compound (3-2) was excellent.
# [7] = tested on: HeLa (human cervical cancer-derived cell); conditions: read-out: 50% cell growth inhibitory concentration (IC50), 48 hours, 0.1% DMF
# Description: (§3) HCT-116 (human colon cancer-derived cell), HeLa (human cervical cancer-derived cell), HLC-2 (human lung cancer-derived cell), and SH-SY-5Y (human neuroblast-derived cell) were treated with AcImImPyPy-γ-ImPy-Indole-CBI (3-2) (10^−5 to 10^−8 M with 0.1% DMF) for 48 hours to evaluate the effect of the compound as an anticancer agent.
# (§4) Evaluation of anticancer activity was made by the following process: HCT-116, HeLa, HLC-2, and SH-SY-5Y cell lines were seeded into a 96-well flat bottom plate in complete media [RPMI1640 (HCT-116, SH-SY-5Y; Sigma-Aldrich Co.) each containing 10% fetal bovine serum and Dulbecco's […] (HeLa, HLC-2, 293T, WI-38; Sigma-Aldrich Co.)] at cell densities of 4.0×10^3, 3.6×10^3, 1.6×10^3, 7.0×10^2, 5.0×10^2, and 8.0×10^2 cells/well and were precultured for 24 hours in a CO2 incubator. The media were replaced with complete media containing 0.1% DMF and 10^−5 to 10^−8 M AcImImPyPy-γ-ImPy-Indole-CBI (3-2). Incubation was performed for 48 hours in the CO2 incubator. Then, 10 μL/well of a Cell Counting Kit-8 (Dojindo Laboratories) was added. The specimens were left standing for 2 hours in the CO2 incubator. Absorbance was measured with a microplate reader MPR-A4I (Tosoh Corp.).
# [8] = tested on: SH-SY-5Y (human neuroblast-derived cell); conditions: read-out: 50% cell growth inhibitory concentration (IC50), 48 hours, 0.1% DMF
# Description: as §3, §4
# [9] = tested on: HLC-2 (human lung cancer-derived cell); conditions: read-out: 50% cell growth inhibitory concentration (IC50); HLC-2, 48 hours, 0.1% DMF
# Description: as §3, §4
# [10] = tested on: HCT-116 (human colon cancer-derived cell); conditions: read-out: 50% cell growth inhibitory concentration (IC50); HCT-116, 48 hours, 0.1% DMF
# Description: as §3, §4
# [11] = tested on: cancerous cell lines versus normal cell lines; conditions: cancerous versus normal cell lines (293T, WI-38)
# Description: as §3, §4
# 5′-YG(A/T)CR-3′ sequence = conditions: low concentration, dimer, both chains, sites 5 base pairs apart; cited from earlier work
compound,measurement,setting,value
"CC(=O)Nc1cn(C)c(C(=O)Nc2cn(C)c(C(=O)Nc3cc(C(=O)Nc4cc(C(=O)NCCC(=O)Nc5cc(C(=O)Nc6cc(C(=O)NCCCC(=O)Nc7cn(C)c(C(=O)Nc8cc(C(=O)NCCC(=O)Nc9cn(C)c(C(=O)Nc%10cc(C(=O)Nc%11ccc%12[nH]c(C(=O)N%13CC%14CC%14%15C%13=CC(=O)c%13ccccc%13%15)cc%12c%11)n(C)c%10)n9)n(C)c8)n7)n(C)c6)n(C)c5)n(C)c4)n(C)c3)n2)n1 (stereo not shown) [compound (3-6), AcImImPyPyβPyPy-γ-ImPyβImPy-Indole-CBI]",alkylated sites (sequence recognition),[1],alkylation (site 2) due to 1-bp-mismatch recognition was observed; also recorded: alkylation of AT-rich base sequences (sites 1 and 3) was also observed
same,efficiency of DNA alkylation,[1],"efficiently alkylated 1,000-base-pair DNA at nanomolar concentrations"
"CC(=O)Nc1cn(C)c(C(=O)Nc2cn(C)c(C(=O)Nc3cc(C(=O)NCCC(=O)Nc4cn(C)c(C(=O)Nc5cc(C(=O)Nc6ccc7[nH]c(C(=O)N8CC9CC9%10C8=CC(=O)c8ccccc8%10)cc7c6)n(C)c5)n4)n(C)c3)n2)n1 (stereo not drawn) [compound (3-7), AcImImPy-β-ImPy-Indole-CBI]",alkylated sites in the presence of compound (6),"[2]; compound (6) 500 nM, heterodimer",alkylation (site 4) based on accurate 10-base-pair recognition was observed
same,"alkylated sites, compound alone",[2]; nanomolar concentrations,efficient alkylation of sites 1 and 2 based on a hairpin mode of recognition and of site 3 based on a linear-chain mode of recognition
"CC(=O)Nc1cn(C)c(C(=O)Nc2cn(C)c(C(=O)Nc3cn(C)c(C(=O)NCCCC(=O)Nc4cc(C(=O)Nc5cc(C(=O)Nc6ccc7[nH]c(C(=O)N8CC(CCl)c9c8cc(O)c8ccccc98)cc7c6)n(C)c5)n(C)c4)n3)n2)n1 (stereo not shown) [compound (4-3), AcImImIm-γ-PyPy-Indole-seco-CBI]",telomeric-sequence-specific alkylation,[3],Efficient telomeric-sequence-specific alkylation (5′-ACCCTA-3′) in a hairpin mode of recognition
AcImImPyPy-γ-ImPy-Indole-CBI [compound (3-2)],mean log IC50 value of 39 cell lines,"[4]; log value, FIG. 9",about −7
same,IC50,"[4]; read-out: mean IC50 of 39 cell lines, printed in brackets after the log value",~100 nM
same,"sequence-specific DNA alkylation, alkylated sites",[5],"Sequence-specific DNA alkylation (site 2 and 3: 5′-TGACCA-3′, site 4: 5′-AGACCA-3′, site 5: 5′-TGTCCA-3′)"
same,alkylated sites (sequence recognition ability),[6],"alkylation in only site 3 (5′-TGACCA-3′) and site 6 (5′-AGTCCA-3′), which were match sequences, was observed"
same,efficiency of DNA alkylation,[6],efficient DNA alkylation comparable with that of a known Py-Im polyamide having a vinyl linker was observed at nanomolar concentrations
same,IC50,[7],59.7 nM
same,IC50,[8],7.43 nM
same,IC50,[9],53.5 nM
same,IC50,[10],74.2 nM
same,anticancer activity against the cancerous cell lines relative to the normal cell lines,[11],about 10 times
ImPyLDu86,alkylation efficiency,5′-YG(A/T)CR-3′ sequence,70%
